# Measurements published in a melting point compilation (Tetko et al.; mined from patent text by program, amines drawn as free bases though some values may be those of a salt).
row,SMILES,melting point
1,CN(C)CC(C)(C)CNc1ncc2cc(-c3c(Cl)cccc3Cl)c(NC(=O)NC(C)(C)C)nc2n1,161 to 170 °C
2,CCOC(=O)OC1=C(c2cc(C)ccc2C)C(=O)NC1CC1CCS(=NC#N)CC1 (stereo unspecified),103 to 105 °C
3,O=c1c(OC(F)F)cn(-c2ccccc2F)nc1-c1ccnn1-c1ccccc1,109 to 114 °C
4,CC(NO)c1ccc2c(c1)Sc1ccccc1O2 (stereo unspecified),64 to 67 °C
5,CC(C)(C)OC(=O)N1COC(=O)[C@@H]1Cc1ccccc1,84 to 86 °C
6,O=C1Cc2c(cccc2C(=O)O)Sc2ccccc21,230 to 232 °C
7,CCc1cccc(C)c1S(=O)(=O)c1nc[nH]n1,180 to 181 °C
8,O=c1cc(-c2n[nH]c3ccccc23)oc2ccccc12,237 to 238 °C
9,C#CCCCCC12SCC(CCC)(CS1)CS2,88 °C
10,Cn1cc(-c2ccccc2)c(=O)c(-c2cccs2)c1,147 to 148 °C
11,CNC(=O)c1cc(N)cc(N2CCOCC2)c1,201 to 204 °C
12,COC(=O)C1=C(C)OC(OC)(OC)CC1NC(C)=O (stereo unspecified),160 to 162 °C
13,COC(=O)C(Cc1ccc(-c2cccc(CNCC(=O)c3ccccc3)c2)cc1)Nc1ccccc1C(=O)c1ccccc1 (stereo unspecified),75 °C
14,O=C(Nc1ccccn1)C(=O)OC1CCCCC1,62 to 64 °C
15,O=C(O)Cc1ccc2c(c1)Cc1ccccc1-2,184 to 186 °C
16,C[C@@H](N1CCN(c2ccc(OCC(F)(F)C(F)(F)F)cc2)C1=O)[C@@]1(c2ccc(F)cc2F)CO1,141 to 144 °C
17,COC(=O)CCc1nc(-c2cc3ccccc3o2)no1,112 to 113 °C
18,CCOCc1nc2c(N)nc3c(c2n1CCCCS(=O)(=O)NC)CCCC3,188 to 192 °C
19,O=C(O)C(=O)c1c(F)c(F)c(OCCOc2ccc3ccccc3c2)c(F)c1F,146 to 148 °C
20,N#CC(=Cc1ccc(C=Cc2ccccc2)cc1)S(=O)(=O)c1ccccc1,179 to 183 °C
21,CCOC(=O)c1ccc2c(c1)CCC(=Cc1cccnc1)C2=O,112 to 114 °C
22,COc1ccc(-c2cc(-c3ccccc3)[nH]c2C(=O)Nc2ccc(C(=O)NO)cc2)cc1,234 to 235 °C
23,COc1ccc2cc(N)ccc2c1,133 to 136 °C
24,OCC1OC(c2c(Cl)nc3cc(Cl)c(Cl)cn23)C(O)C1O (stereo unspecified),239 to 240 °C
25,O=C(Nc1ccc(Cc2nnn[nH]2)cc1)C(F)(F)C(F)(F)C(F)(F)C(F)(F)F,173 to 174 °C
26,COC(=O)c1ccccc1-c1ccc(C(=C2CC(C)(C)CC(C)(C)C2)c2ccc(O)cc2)cc1,177 to 178 °C

row,SMILES,melting point
1,Cn1cc(-c2cccc(C(F)(F)F)c2)c(=O)c(-c2ccc(Cl)c(Cl)c2)c1,109 to 112 °C
2,Cc1ccc2c(=O)[nH]sc2n1,187 to 190 °C
3,CN1CCCc2cc(Cc3cnc(N)nc3N)ccc21,190 to 191 °C
4,Cc1ccc(S(=O)(=O)OCC2Cc3cccc(-c4ccccc4C)c3O2)cc1 (stereo unspecified),98 to 100 °C
5,CCOc1ccc(C2=NN(C3CCN(S(=O)(=O)c4ccc(C)cc4)CC3)C(=O)[C@@H]3CC=CC[C@H]23)cc1OCC,99 to 101 °C
6,COc1cc(C=CC=C2SC(=O)NC2=O)ccc1OC(C)C,230 to 231 °C
7,C=CCO/N=C(/C(=O)OCC)c1ccc(OCCOc2ccc3ccccc3c2)s1,75 to 77 °C
8,Cc1cc(C)c(C(C)(C#N)c2nc(C)nc(Cl)c2C)c(C)c1 (stereo unspecified),181 to 183 °C
9,ClCc1cccc(CCl)n1,74.5 to 75.5 °C
10,NC(=O)CC1CN(Cc2ccccc2)CCN1Cc1ccccc1 (stereo unspecified),114 °C
11,C=CCN(CC=C)C(=O)n1cnc(S(=O)(=O)CCOCC)n1,62 to 63 °C
12,C#CCOc1ccccc1S(N)(=O)=O,143 to 145 °C
13,CC(C)Cc1ncn(C(C)C(O)(Cc2nc[nH]n2)c2ccc(Cl)cc2)n1 (stereo unspecified),140 to 141 °C
14,CCOC(=O)C=Cc1cc(Br)cc(Cc2cccnc2)c1,81 to 83 °C
15,CS(=O)(=O)OCC1CCN(c2ccc(Br)cc2)C1=O (stereo unspecified),120 to 123 °C
16,O=C1C2=NCCCN2c2ccc(Br)cc21,166 to 168 °C
17,CCOC(=O)c1sc(SC)c(C(=O)CC(C)=O)c1C,51 to 52 °C
18,COc1cccc(-c2nc(C(=O)OC(C)(C)C)c(-c3ccncc3)[nH]2)c1,197 to 199 °C
19,CCCCc1nc2c(N)nc3ccccc3c2n1CCCNS(C)(=O)=O,239 to 241 °C
20,O=C1NC(=O)c2c3ccccc3cc3cccc1c23,310 °C
21,CCCCCCCCCCOc1ccc(C(=O)NNC(=O)C(F)(F)C(F)(F)C(F)(F)F)cc1,88 °C
22,NS(=O)(=O)c1ccc(-n2c(-c3ccccc3)csc2=S)cc1,235 °C
23,C[Si](C)(C)CC(O)(Cn1cncn1)c1ccccc1 (stereo unspecified),86 to 87 °C
24,COC(=O)C(Sc1ccc(Cl)cc1)c1ccc(Oc2ccc(Cl)cc2)cc1 (stereo unspecified),71 to 75 °C
25,CCCC(=O)Nc1cc(C(=O)NC2CCN(C(C)CC(C(=O)N(C)C)(c3ccccc3)c3ccccc3)CC2OC)c(OC)cc1Cl (stereo unspecified),131 °C
26,CCCCOc1ccc(-c2ncc(C(=O)OCC)cn2)cc1,99.1 °C

row,SMILES,melting point
1,CCSc1cc(C)nc(SCC)c1NC(=O)CCCCCCCSc1nc2cccc(C(F)(F)F)c2o1,99 to 100 °C
2,Cc1[nH]c(Br)c(C)c1-c1ccnc(Nc2ccc(F)cc2)n1,181 to 183 °C
3,CCCCCCCCCCc1ccc(C(=O)NOCc2ccccc2)cc1,82 to 83 °C
4,CC1=C(C(=O)OC(C)C)C(c2cccc3ccc(-c4ccccc4)nc23)C([N+](=O)[O-])=C(C)N1 (stereo unspecified),205 °C
5,CC1C(=O)N(c2ccc(S(N)(=O)=O)cc2Cl)CN1c1ccccc1 (stereo unspecified),202 °C
6,Cc1c(SCCCN2CCN(Cc3ccc(Cl)s3)CC2)ccnc1CS(=O)c1nc2ccccc2[nH]1 (stereo unspecified),54 to 58 °C
7,CCCCCCCCC1C=CC(Cc2ccc(C(=O)O)o2)=C2N=C3CCCCC3=C21 (stereo unspecified),152 to 155 °C
8,CCCCCCNc1nc(SC)[nH]c2nccc1-2,118 °C
9,CC(C)(c1ccc(Oc2cccc(N3C(=O)C=CC3=O)c2)cc1)c1ccc(C(C)(C)c2ccc(Oc3cccc(N4C(=O)C=CC4=O)c3)cc2)cc1,192 to 193 °C
10,CCOC(=O)CN(c1cccc2cc(-c3nccs3)n(COC)c12)S(=O)(=O)c1cccs1,124 to 125 °C
11,COC(C)c1nc2c(N)nc3ccccc3c2n1CC(C)C (stereo unspecified),185 to 189 °C
12,O=C(NCCc1ccccn1)c1ccccc1-c1ccccc1CNS(=O)(=O)c1ccc(F)cc1,130 °C
13,CC(C)(C)OC(=O)c1ccc(C(=O)N(Cc2ccccc2)S(=O)(=O)c2ccc(Br)cc2)cc1,120 to 122 °C
14,CCOC(=O)C(C)c1ccc2oc(C(=O)c3ccc(Cl)cc3)nc2c1 (stereo unspecified),66 to 67 °C
15,O=C1CNC(c2ccc([N+](=O)[O-])cc2)=NN1,284 to 286 °C
16,Brc1ccc2oc3ccc(Br)cc3c2c1,226 °C
17,Ic1cccc(OCCCCCCOc2c(I)cc(I)cc2I)c1,65 to 66 °C
18,Cc1nc(-c2cccc3ccccc23)n2cn[nH]c(=O)c12,261 to 263 °C
19,COc1cccc2c1C(=O)c1c(OC)cc(C#N)cc1C2=O,266 to 268 °C
20,CSc1csc2c1CCN(C)CC2c1ccccc1 (stereo unspecified),93 °C
21,CS(=O)(=O)OCCc1ccc(OCc2ccccc2)cc1,48 to 50 °C
22,CC(C)(C)OC(=O)NCc1ccc2cc(C(N)=O)[nH]c2c1,209 to 210 °C
23,Cn1ncc2c1-c1c(Oc3ccc4c(c3)OCO4)sc(C(=O)NC(C)(C)C)c1CC2,171 to 179 °C
24,CCOc1nn(Cc2ccc(OCCn3ncc4ccccc4c3=O)cc2)cc1CCC(=O)O,152 to 153 °C
25,COc1ccc([C@H](Sc2cc(Oc3ccccc3)ccc2N)[C@@H](O)C(=O)O)cc1,151 to 152 °C
26,COc1ccc2c(C)n[nH]c(=O)c2c1,203 to 205 °C

row,SMILES,melting point
1,CCC(C)NC(C(=O)O)C(C)C (stereo unspecified),> 300 °C
2,CN1CCN(C2=Nc3ccccc3N(C=O)c3ccncc32)CC1,196 °C
3,CCOC(=O)COc1ccc(C(=O)Nc2ccccc2Sc2ccc(-c3nnn[nH]3)cc2)cc1,148 to 149 °C
4,COc1ccc(C(=C/C=C/C(=O)O)c2ccc(OC)c(OC)c2)cc1OC,174 to 176 °C
5,CCn1c2ccccc2c2oc(C#N)cc(=O)c21,184 to 185 °C
6,O=C1c2ccccc2C(=O)N1c1ccc(S(=O)(=O)NCCC2(C(=O)NCC(F)(F)F)c3ccccc3-c3ccccc32)cc1,235 to 237 °C
7,Cn1c2c(c(=O)n3nc(-c4ccccc4)cc13)CN(C1CCCCC1)C2=O,276 to 279 °C
8,COc1ccc(CNC(=O)c2cc3c(=O)n(CCOc4ccc(F)cc4)c(=O)n(C)c3s2)cc1,170 to 171 °C
9,CCOC(=O)c1cc(-c2cc(Br)cc(Br)c2)cnc1C,100 to 102 °C
10,Cc1cccc(-c2nc3ccc(OCCCN4CCCC4)cc3n2Cc2ccccc2)c1,120 °C
11,CCCCn1nc2c(N)nc3ccccc3c2c1CC,215 to 216 °C
12,CC(=O)OC1CCC2(C)C(=CC(=O)C3C2CCC2(C)C(OC(C)=O)CCC32)C1 (stereo unspecified),220 to 221 °C
13,COc1cccc(CS[C@H]2C[C@@H](C(N)=O)N(C)C2)c1,113 to 114 °C
14,CCOC(=O)c1sc(-n2ccc(OC)cc2=O)nc1C,163 to 165 °C
15,CCOC(=O)C1(O)CCSc2ccccc21 (stereo unspecified),117 to 119 °C
16,Oc1ccc(C2=CCN(CCCN3CCOCC3)CC2)cc1,166 to 168 °C
17,NCC1Cc2cccc(-c3ccc(F)c(Cl)c3)c2O1 (stereo unspecified),> 210 °C
18,CCCN(CCCCNC(=O)N1CCc2cc(OC)c(OC)cc2C1)C1CCc2ncsc2C1 (stereo unspecified),106 °C
19,C#CCOC(=O)c1cc(-n2c(=O)cc(C)n(C)c2=O)c(F)cc1C#N,174 to 177 °C
20,CCCc1nn(-c2ccc(C(F)(F)F)cn2)cc1CCCOc1cc(CC(=O)O)cc(OC)c1,139 to 140 °C
21,O=S(=O)(Nc1ccncc1)c1ccc(Br)s1,310 °C
22,Cn1c(-c2ccc(OCC(=O)O)cc2)nc2c3ccccc3ccc21,227 °C
23,O=C(O)c1nn(Cc2ccc(Cl)cc2Cl)c2c1Cc1cc(Cl)ccc1-2,> 260 °C
